Test results published in patent US9266852B2, “Daidzein derivative, pharmaceutically acceptable salt and preparation method thereof, and pharmaceutical composition containing same” (ANHUI BIOCHEM BIO-PHARMACEUTICAL CO., LTD, priority 2011, dated 2016).
Where a name gives a salt, the structure may show the parent alone.

Assays:
decapitated mice = test: Acute cerebral ischemia in mice (gasping time of decapitated mice); format: in vivo; settings: for effect on acute ischemia tolerance time, in words: conclusion from table 5, mice, intraperitoneal; for Gasping times (X ± s) / Prolongation rates (gasping time): decapitated mice; for Gasping times (X ± s): 20 min after administration, n = 10, control group 18.5 ± 3.1; for Prolongation rates (gasping time): versus control group
Procedure: 70 mice were taken and randomly divided into seven groups, except the blank group which was not administered and the saline group which was administered with the same volume of saline, the remaining five groups were respectively injected intraperitoneally with 25 mg/kg pueraria daidzein, 36 mg/kg compound of the example of the present application, 47 mg/kg 4,7-disubstituted daidzein, 36 mg/kg 4-substituted daidzein and 36 mg/kg USP compound (the converted dose of each compound is equivalent to the dose of the daidzein, since the daidzein is difficult to dissolve in water, 50% propylene glycol aqueous solution is used to dissolve, and other compounds were dissolved with water to achieve a suitable concentration), 20 min after administration, the mice were decapitated rapidly from behind the ear, then the time starting from decapitation to the last gasp was recorded.

thrombus = test: Formation time and length of thrombus in rabbit blood, thrombosis instrument (antithrombotic effect research 2); format: in vivo, rabbits; settings: for antithrombotic effect after oral administration, in words: conclusion from table 7, rabbits; for Lengths of thrombus, after administration / Thrombus formation times (X ± s), after administration / Lengths of thrombus, before administration / Thrombus formation times (X ± s), before administration: rabbits; for Lengths of thrombus, after administration: 15 minutes rotation; for Thrombus formation times (X ± s), after administration: 30 minutes after last administration; for Lengths of thrombus, before administration / Thrombus formation times (X ± s), before administration: baseline before administration
Procedure: 30 rabbits were taken and randomly divided into five groups, each group was administered intragastrically with 15 mg/kg pueraria daidzein, 22 mg/kg compound of the example of the present application, 28 mg/kg 4,7-disubstituted daidzein, 22 mg/kg 4-substituted daidzein and 22 mg/kg USP compound (the converted dose of each compound is equivalent to the dose of the daidzein, since the daidzein is difficult to dissolve in water, 50% propylene glycol aqueous solution is used to dissolve, and other compounds were dissolved with water to achieve a suitable concentration), 2 ml blood was taken from the heart before administration, and after 7 consecutive days of administration, 2 ml blood was taken from the heart 30 minutes after the last administration, and injected immediately into the rotating ring of the thrombosis instrument, and rotated at 15-17 rpm under 37° C., and the rotating time of the thrombus alone with the ring was recorded, which is defined as thrombus formation time of fibrin, the rotation was stopped after 15 minutes, the thrombus was taken out, and the length of the thrombus was measured.

[1] = test system: mice with hypoxia tolerance at normal pressure; test: Hypoxia tolerance of mice at normal pressure (survival time in closed jar); format: in vivo; settings: for effect on hypoxia tolerance time, in words: conclusion from table 4, mice, intraperitoneal; for Survival times (X ± s) / Prolongation rates (survival time): mice; for Survival times (X ± s): 20 min after administration, n = 10, control group 22.5 ± 2.6; for Prolongation rates (survival time): versus control group
Procedure: 70 mice were taken and randomly divided into seven groups, except the blank group which was not administered and the saline group which was administered with the same volume of saline, the remaining five groups were respectively injected intraperitoneally with 25 mg/kg pueraria daidzein, 36 mg/kg compound of the example of the present application, 47 mg/kg 4,7-disubstituted daidzein, 36 mg/kg 4-substituted daidzein and 36 mg/kg USP compound (the converted dose of each compound is equivalent to the dose of the daidzein, since the daidzein is difficult to dissolve in water, 50% propylene glycol aqueous solution is used to dissolve, and other compounds were dissolved with water to achieve a suitable concentration), 20 min after administration, the mice were put into a 250 ml grinding jar (where 10 g soda lime was placed), with one mouse in each jar, and the jar was capped tightly after the mouse was put into the jar, then the survival time of the mice was immediately recorded by a stopwatch.

[2] = test system: euglobulin lysis time of guinea pigs; test: Euglobulin lysis time of guinea pigs (antithrombotic effect research 1); format: in vivo; settings: for antithrombotic effect after oral administration, in words: conclusion from table 6, guinea pigs; for Optimal dissolution times (X ± s), after administration / Fibrinolytic enzyme activities, after administration / Optimal dissolution times (X ± s), before administration / Fibrinolytic enzyme activities, before administration: guinea pigs; for Optimal dissolution times (X ± s), after administration: 30 minutes after last administration; for Fibrinolytic enzyme activities, after administration / Fibrinolytic enzyme activities, before administration: =10000/optimal dissolution time (min); for Optimal dissolution times (X ± s), before administration / Fibrinolytic enzyme activities, before administration: baseline before administration
Procedure: 30 guinea pigs were taken and randomly divided into five groups, each group was administered intragastrically with 25 mg/kg pueraria daidzein, 36 mg/kg compound of the example of the present application, 47 mg/kg 4,7-disubstituted daidzein, 36 mg/kg 4-substituted daidzein, and 36 mg/kg USP compound (the converted dose of each compound is equivalent to the dose of the daidzein, since the daidzein is difficult to dissolve in water, 50% propylene glycol aqueous solution is used to dissolve, and other compounds were dissolved with water to achieve a suitable concentration), 1.5 ml blood was taken from the heart before administration, and after 7 consecutive days of administration, 1.5 ml blood was taken from the heart 30 minutes after the last administration, and put into a sodium citrate anti-cruor tube, and the plasma was separated by centrifugation, then 0.5 ml plasma was taken and added with 9 ml distilled water and 0.1 ml of 1% acetic acid solution, and the mixture was centrifugated after being refrigerated for 30 minutes, then the resulting precipitate was dissolved with 0.5 ml sodium borate buffer (pH9.0), and the dissolution time was recorded as euglobulin lysis time, it can be obtained through calculation that fibrinolytic enzyme activity (u)=10000/optimal dissolution time (min).

[3] = Experiment of solubility: solvent equilibrium experiment in methanol, gravimetric analysis; format: physicochemical; settings: for solubility (solvent equilibrium experiment): methanol, 25°C, at least 20 hours, gravimetric, approximate
Procedure: in the water bath at 25±5° C., the solvent equilibrium experiment was performed on the above materials for at least 20 hours by using 1 mL methanol, then the solution was filtered and dried in the air for 10 minutes, and after the solvent was evaporated under vacuum, the approximate solubilities of the above materials in the solvent was measured through gravimetric analysis, with results shown in table 1.

rat in vitro thrombosis = test: Anti-thrombosis experiment: rat in vitro thrombosis after oral administration (artery-jugular vein blood flow bypass method); format: in vivo, rat (Wistar, male)
Procedure: 1. Rat in vitro general artery-jugular vein blood flow in the bypass method (please refer to “Journal of Changchun University of Traditional Chinese Medicine”, 2011, Volume 27, Issue 4, Pages 514-518, Yunfei Sun, Min Shi, “Study on the Effect of Pueraria Injection on Thrombosis Formation, Cerebral Ischemia and Platelet Aggregation in Rats);
1. Experiment in vivo: the dose is 50 mg/kg, 100 mg/kg, 200 mg/kg, and the animals are administered intragastrically once daily at 1 ml/100 g […] for 3 consecutive days;
2. Positive control, the animals are administered with acetylsalicylic acid (produced by Northwest Second Synthetic Pharmaceutical Factory) at 45 mg/kg in the experiment in vivo.

[4] = test system: whole blood in vitro thrombosis of normal rats; test: Anti-thrombosis experiment: whole blood in vitro thrombosis after in vitro administration (in vitro thrombosis instrument method); settings: Rattus norvegicus, read-out: Thrombosis inhibition rates
Procedure: ii) Experimental animals: Wistar, which is a male rat outbreeding closed system, purchased from the Institute of Laboratory Animal Sciences, Chinese Academy of Medical Sciences, weighing 242±11.2 g, the animals are divided into 5 groups with 10 animals in each group.
Experiment in vitro: the dose is 1.56 mg/kg, 3.12 mg/kg, 6.25 mg/kg, and the animals are administered once directly.
Blank control, the animals are administered with the same volume of distilled water in the experiment in vivo; and administered with the same volume of saline in the experiment in vitro;

[5] = 22 mg/kg intragastrically 7 consecutive days
[6] = 36 mg/kg intragastrically 7 consecutive days
[7] = 36 mg/kg intragastrically 7 days
[8] = 15 mg/kg intragastrically 7 consecutive days

| SMILES | Gasping times (X ± s) (decapitated mice; 36 mg/kg intraperitoneally) [s] | Prolongation rates (gasping time) (decapitated mice; 36 mg/kg intraperitoneally) [%] | Lengths of thrombus, after administration (thrombus; [5]) [cm] | Thrombus formation times (X ± s), after administration (thrombus; [5]) [min] | Lengths of thrombus, before administration (thrombus; 22 mg/kg group) [cm] | Thrombus formation times (X ± s), before administration (thrombus; 22 mg/kg group) [min] | Survival times (X ± s) ([1]; 36 mg/kg intraperitoneally) [min] | Optimal dissolution times (X ± s), after administration [2, 6] [min] | Fibrinolytic enzyme activities, after administration [2, 7] [u] | Optimal dissolution times (X ± s), before administration ([2]; 36 mg/kg group) [min] | Fibrinolytic enzyme activities, before administration ([2]; 36 mg/kg group) [u] | solubility (solvent equilibrium experiment) [3] [mg/g] | further results |
| --- | --- | --- | --- | --- | --- | --- | --- | --- | --- | --- | --- | --- | --- |
| CCN(CC)CC(=O)Oc1ccc2c(=O)c(-c3ccc(O)cc3)coc2c1 | 26.7 ± 4.8 | 44.3 | 10.7 ± 1.96 | 8.17 ± 1.54 | 14.9 ± 1.27 | 6.29 ± 1.31 | 35.1 ± 6.6 | 20.6 ± 5.5 | 485.4 | 33.6 ± 11.1 | 297.6 | – | effect on acute ischemia tolerance time, in words (decapitated mice): significantly prolong; antithrombotic effect after oral administration, in words (thrombus): significant efficacy; effect on hypoxia tolerance time, in words [1]: significantly prolong; Prolongation rates (survival time) ([1]; 36 mg/kg intraperitoneally): 56%; antithrombotic effect after oral administration, in words [2]: significant efficacy |
| CCN(CC)CC(=O)Oc1ccc(-c2coc3cc(O)ccc3c2=O)cc1 [4-substituted daidzein] | 20.3 ± 8.1 | 9.7 | 14.1 ± 2.17 | 7.25 ± 1.34 | 14.7 ± 2.02 | 6.44 ± 1.71 | 21.1 ± 6.4 | 29.3 ± 5.7 | 341.3 | 30.3 ± 9.4 | 330.0 | – | – |
| CCN(CC)CC(=O)Oc1ccc2c(=O)c(-c3ccc(O)cc3)coc2c1 [7-O-N,N-diethyl-aminoacetyl daidzein, 7-O—N,N-diethyl-aminoacetyl daidzein] | – | – | – | – | – | – | – | – | – | – | – | 16.3 | – |
| O=C(CCl)Oc1ccc2c(=O)c(-c3ccc(O)cc3)coc2c1 [7-O-chloroacetyl daidzein] | – | – | – | – | – | – | – | – | – | – | – | 17.6 | – |
| CCN(CC)CC(=O)Oc1ccc2c(=O)c(-c3ccc(O)cc3)coc2c1 [7-O—N,N-diethyl-aminoacetyl daidzein hydrochloride] | – | – | – | – | – | – | – | – | – | – | – | – | solubility, in words ([3]; conclusion from table 1, methanol 25°C): higher solubility; solubility (solvent equilibrium experiment) ([3]; hydrochloride): 25 mg/g; antithrombotic effect, in words (rat in vitro thrombosis; conclusion from table 2 and table 3 (oral and in vitro administration, rat)): good antithrombotic effect |
| CC(=O)Oc1ccccc1C(=O)O [Acetylsalicylic acid, acetylsalicylic acid] | – | – | – | – | – | – | – | – | – | – | – | – | inhibition at 1.46 mg/kg [4]: 32.1%; inhibition at 45 mg/kg (rat in vitro thrombosis; po, rat, 45 mg/kg, positive control, read-out: Thrombosis inhibition rates): 58.7%; Wet weights of thrombus (rat in vitro thrombosis; rat, 45 mg/kg, positive control, n = 10, saline group 30.18 ± 3.12): 11.38 ± 1.47 mg |
| O=c1c(-c2ccc(O)cc2)coc2cc(O)ccc12 [Pueraria daidzein, daidzein] | – | – | – | – | – | – | – | – | – | – | – | 16.8 | effect on acute ischemia tolerance time, in words (decapitated mice): poor effect; Gasping times (X ± s) (decapitated mice; 25 mg/kg intraperitoneally): 23.1 ± 6.2 s; Prolongation rates (gasping time) (decapitated mice; 25 mg/kg intraperitoneally): 24.9%; antithrombotic effect after oral administration, in words (thrombus): weak antithrombotic effect; Lengths of thrombus, after administration (thrombus; [8]): 12.8 ± 1.49 cm; Thrombus formation times (X ± s), after administration (thrombus; [8]): 7.18 ± 1.27 min; Lengths of thrombus, before administration (thrombus; 15 mg/kg group): 14.2 ± 1.95 cm; Thrombus formation times (X ± s), before administration (thrombus; 15 mg/kg group): 6.21 ± 1.23 min; effect on hypoxia tolerance time, in words [1]: poor effect; Survival times (X ± s) ([1]; 25 mg/kg intraperitoneally): 28.1 ± 5.3 min; Prolongation rates (survival time) ([1]; 25 mg/kg intraperitoneally): 24.9%; antithrombotic effect after oral administration, in words [2]: weak antithrombotic effect; Optimal dissolution times (X ± s), after administration ([2]; 25 mg/kg intragastrically 7 consecutive days): 27.3 ± 8.4 min; Fibrinolytic enzyme activities, after administration ([2]; 25 mg/kg intragastrically 7 days): 366.3 u; Optimal dissolution times (X ± s), before administration ([2]; 25 mg/kg group): 34.5 ± 10.1 min; Fibrinolytic enzyme activities, before administration ([2]; 25 mg/kg group): 289.9 u |
| CN(C)CCCC(=O)Oc1ccc2c(=O)c(-c3ccc(O)cc3)coc2c1 [USP compound, 7-O—N,N-dimethyl-aminobutyryl daidzein] | 23.5 ± 7.2 | 27 | 11.8 ± 2.01 | 7.31 ± 1.72 | 14.1 ± 3.84 | 6.37 ± 1.72 | 24.6 ± 5.7 | 25.7 ± 7.7 | 389.1 | 35.5 ± 8.2 | 281.7 | – | Prolongation rates (survival time) ([1]; 36 mg/kg intraperitoneally): 9.3% |
